From paper PMC8776094, “Reactive Oxygen Species Production Is Responsible for Antineoplastic Activity of Osmium, Ruthenium, Iridium and Rhodium Half-Sandwich Type Complexes with Bidentate Glycosyl Heterocyclic Ligands in Various Cancer Cell Models” (International Journal of Molecular Sciences, 2022)

Legend:
[1] = Determination of the distribution coefficients (logD), n-octanol/PBS; type: physicochemical; conditions: n-octanol / PBS pH = 7.40, rt
Method: Before starting the experiments, n-octanol was saturated with an aqueous PBS solution (pH = 7.40) and vice versa. A solution of the appropriate complex (approximately 0.2–0.3 mg) in a mixture of 2.50 mL pre-saturated n-octanol and 2.50 mL pre-saturated PBS buffer was made, and the resulting mixture was then vigorously stirred for 3 days at rt. Based on our previous NMR stability experiments, this time is long enough to reach equilibrium among the various ionic complex species. Due to the lipophilic/hydrophilic features of the complexes, those with benzoyl protection could primarily be found in the n-octanol, while the complexes with O-peracetylated and O-deprotected ligands were in the aqueous PBS phase. The corresponding separated solution was centrifuged (ScanSpeed 406G instrument, 4000 RPM for 5 min) and the absorption of the ”stock solution” was determined (VWR UV-1600PC Spectrophotometer, 270–420 nm). Then, 2.00 mL of the stock solution was vigorously stirred with 16.00 mL of pre-saturated n-octanol or PBS solution. After one day had passed, the phases were separated, centrifuged, and the absorption of the solution was measured again. From the absorption difference of the stock solutions, the distribution coefficient (D) was determined using previously described formulae [71].

[2] = test system: A2780 ovarian cancer cells; assay: SRB assay, 48 h, cytostasis, A2780; type: cell-based; conditions: for A2780 Max. Inh. (%): ND = not detected; for cytostatic activity on A2780 cells in SRB assay (in words): 48 h treatment
Method: (§1) The compounds were tested between 0.001694 and 33.3333 µM, using a 4-hour-long MTT test to assess rapid toxicity and a 48-hour-long SRB assay to assess the long-term effects of the inhibition of proliferation (cytostasis). The MTT assay assesses the activity of mitochondrial complex I and detects rapid, direct toxicity, as well as indicating apoptosis and necrosis. The SRB assay measures the total protein content that is proportional to cell numbers; therefore, the assay can detect changes in cell numbers and can thus be used as a readout for cell proliferation. The SRB assay was performed after 48 h of treatment (with the exception of L428 cells, which were tested for 96 h due to their slower proliferation rate). In this setting, the SRB assay informs us of long-term changes to cell proliferation. We assessed the maximal inhibition within that concentration range, and descriptive statistics were performed. We performed a one-way ANOVA, followed by the Kruskal–Wallis test, regardless of the normal or non-normal distribution of the data. Due to the large number of significance values, the results of the significance calculations are provided in an Excel spreadsheet at https://figshare.com/s/28d14597d5041f08eb08 (accessed on 6 January 2022), among other primary data of the study. Where possible, nonlinear regression was performed on the curves to determine the IC50 values ((inhibitor) vs. response—variable slope (four parameters) method with Graphpad v8.0.1). […] In Table 5, we added the IC50 values that we determined for a set of 4 active ruthenium half-sandwich complexes we identified previously, to be used in subsequent structure-activity relationship (SAR) analyses.
(§2) A2780 cells were cultured in RMPI 1640 medium, supplemented with 10% fetal calf serum, 2 mM glutamine, and 1% penicillin-streptomycin.
(§3) The assay was performed similarly to the method used in [73]. Cells were seeded in 96-well plates the day before the assay. Cells were treated with the compounds for 48 h, with the exception of L428, where 96 h of treatment was applied. Cells were fixed with 10% trichloroacetic acid (TCA). Fixed cells were washed in distilled water 3 times, followed by staining with SRB (0.4 m/V% dissolved in 1% acetic acid) for 10 min. The stained cells were washed in 1% acetic acid 5 times; the acetic acid was removed, and the cells were left to dry. Protein-bound SRB was released by adding 100 µL 10 mM Tris base. Plates were measured in a plate photometer (Thermo Scientific Multiscan GO spectrophotometer, Waltham, MA, USA) at 540 nm. On each plate, wells were designed to contain untreated cells. In calculations, the readings for these wells were considered as 1 and all readings were expressed relative to these values.
(§4) Statistical analysis was performed using the 8.0.1 version of Graphpad Prism. Values were tested for normal distribution, using the d’Agostino and Pearson normality test. When necessary, values were log-normalized or were normalized using the Box-Cox normalization method or using a two-step transformation, as indicated in the figure captions. Nonlinear regression was performed using the built-in “[Inhibitor] vs. Response—Variable slope (four parameters), least-square fit” utility of Graphpad, yielding the IC50 and Hill slope values.

[3] = test system: Capan2, a pancreatic adenocarcinoma cell line; assay: SRB assay, 48 h, cytostasis, Capan2; type: cell-based; conditions: SRB assay, ND = not detected
Text: We turned next to assessing whether the cytostatic activity of Os-3, Os-4, Os-5, Os-6 and Ir-6 complexes is specific for ovarian cancer cell lines or if they may be active on other cell lines. To that end, we tested the complexes on another carcinoma cell line (Capan2, a pancreatic adenocarcinoma cell line), on a sarcoma cell line (Saos, an osteosarcoma cell line) and on a lymphoma cell line (L428, a Hodgkin’s lymphoma cell line).
Capan2 cells were maintained in MEM, 10% fetal bovine serum, 1% penicillin/streptomycin, and 2 mM glutamine.
as §3, §4
Here, 1.5 × 10^3 Capan2, 3 × 10^3 Saos cells and 10^4 L428 cells were plated onto 96-well plates. Capan2 and Saos cells were treated with the compounds in the concentrations indicated for 48 h for an SRB assay. L428 cells were treated with the compounds in the concentrations indicated for 96 h, then cells were counted using conventional microscopy and a Burker chamber. Data are represented as average ± SD, from three biological replicates; individual assays were performed in duplicate. Values were normalized for vehicle-treated cells; the absorbance for vehicle-treated cells is equal to 1. A one-way ANOVA, followed by a Kruskal–Wallis test, was performed individually for each compound. The results of the statistical analysis are presented in an Excel spreadsheet at https://figshare.com/s/28d14597d5041f08eb08 (accessed on 6 January 2022). Nonlinear regression was performed on the data.

[4] = test system: ID8 ovarian cancer cell line; assay: MTT reduction assay, 4 h, rapid toxicity, ID8; type: cell-based; conditions: MTT assay, 4 h treatment; ND = not detected or cannot be calculated
Method: as §1
(§5) ID8 cells were cultured in a high-glucose DMEM (4.5 g/L glucose) medium, supplemented with 4% fetal calf serum, 2 mM glutamine, 1% penicillin-streptomycin, and 1% ITS supplement (I3146).
(§6) The MTT reduction assay measures the activity of mitochondrial complex I and can be used to detect apoptosis and necrosis. The assay was performed similarly to the method used in [72]. Briefly, cells were plated in 96-well plates the day before the assay. Cells were treated with the compounds for 4 h, then MTT was added at 0.5 mg/mL final concentration and the cells were incubated at 37 °C in a cell incubator. The culture media were removed and the reduced MTT dye was dissolved in dimethyl-sulfoxide (DMSO) and plates were measured in a plate photometer (Thermo Scientific Multiscan GO spectrophotometer, Waltham, MA, USA) at 540 nm. On each plate, wells were designed to contain untreated/vehicle-treated cells. In the calculations, the readings for these wells were considered as 1 and all readings were expressed relative to these values.

[5] = test system: ID8 ovarian cancer cell line; assay: SRB assay, 48 h, cytostasis, ID8; type: cell-based; conditions: for ID8 Max. Inh. (%): SRB assay, 48 h, ND = not detected; for cytostatic activity on ID8 cells, SRB assay (in words): 48 h treatment
Method: as §1, §5, §3, §4

[6] = test system: A2780 ovarian cancer cells; assay: MTT reduction assay, 4 h, rapid toxicity, A2780; type: cell-based; conditions: 4 h treatment
Method: as §1, §2, §6

Compound | LogD [1] | A2780 Max. Inh. (%) ([2]; SRB assay, 48 h) | other results
Cc1c(C)c(C)[c-](C)c1C.F[P-](F)(F)(F)(F)F.O=C(OCC1OC(c2noc(-c3ccccn3)n2)C(OC(=O)c2ccccc2)C(OC(=O)c2ccccc2)C1OC(=O)c1ccccc1)c1ccccc1.[Cl][Ir+2] (mixture of isomers) [Ir-1] | 2.87 | 35.13 | 
Cc1c(C)c(C)[c-](C)c1C.F[P-](F)(F)(F)(F)F.OCC1OC(c2noc(-c3ccccn3)n2)C(O)C(O)C1O.[Cl][Ir+2] (mixture of isomers) [Ir-2] | −1.15 | 36.38 | 
Cc1c(C)c(C)[c-](C)c1C.F[P-](F)(F)(F)(F)F.O=C(OCC1OC(c2nnc(-c3ccccn3)o2)C(OC(=O)c2ccccc2)C(OC(=O)c2ccccc2)C1OC(=O)c1ccccc1)c1ccccc1.[Cl][Ir+2] (mixture of isomers) [Ir-3] | 1.46 | 69.25 | Capan2 Max. Inh. (%) [3]: 27.62%; cytostatic activity on A2780 cells in SRB assay (in words) [2]: mild; Maximum Inhibition (%) ID8 [4]: 26.11%
Cc1c(C)c(C)[c-](C)c1C.F[P-](F)(F)(F)(F)F.O=C(OCC1OC(c2nnc(-c3ccccn3)o2)C(OC(=O)c2ccccc2)C(OC(=O)c2ccccc2)C1OC(=O)c1ccccc1)c1ccccc1.[Cl][Ir+2] (mixture of isomers) [Ir-4] | 1.46 | 32.45 | 
Cc1c(C)c(C)[c-](C)c1C.F[P-](F)(F)(F)(F)F.O=C(OC1COC(c2nnc(-c3ccccn3)o2)C(OC(=O)c2ccccc2)C1OC(=O)c1ccccc1)c1ccccc1.[Cl][Ir+2] (mixture of isomers) [Ir-5] | 1.80 | 45.45 | ID8 Max. Inh. (%) [5]: 53.15%
CC(=O)OCC1OC(c2nnc(-c3ccccn3)o2)C(OC(C)=O)C(OC(C)=O)C1OC(C)=O.Cc1c(C)c(C)[c-](C)c1C.F[P-](F)(F)(F)(F)F.[Cl][Ir+2] (mixture of isomers) [Ir-7] | −0.75 | 26.91 | 
Cc1c(C)c(C)[c-](C)c1C.F[P-](F)(F)(F)(F)F.OCC1OC(c2nnc(-c3ccccn3)o2)C(O)C(O)C1O.[Cl][Ir+2] (mixture of isomers) [Ir-8] | −1.60 |  | 
Cc1c(C)c(C)[c-](C)c1C.F[P-](F)(F)(F)(F)F.OCC1OC(c2nnc(-c3ccccn3)o2)C(O)C(O)C1O.[Cl][Ir+2] (mixture of isomers) [Ir-9] | −1.47 | 21.29 | 
Cc1c(C)c(C)[c-](C)c1C.F[P-](F)(F)(F)(F)F.OC1COC(c2nnc(-c3ccccn3)o2)C(O)C1O.[Cl][Ir+2] (mixture of isomers) [Ir-10] | −1.56 | 23.12 | 
CC(=O)OCC1OC(n2cc(-c3ccccn3)nn2)C(OC(C)=O)C(OC(C)=O)C1OC(C)=O.Cc1c(C)c(C)[c-](C)c1C.F[P-](F)(F)(F)(F)F.[Cl][Ir+2] (mixture of isomers) [Ir-11] |  | 20.26 | cytostatic activity on A2780 cells in SRB assay (in words) [2]: biologically inactive
Cc1c(C)c(C)[c-](C)c1C.F[P-](F)(F)(F)(F)F.OCC1OC(n2cc(-c3ccccn3)nn2)C(O)C(O)C1O.[Cl][Ir+2] (mixture of isomers) [Ir-12] |  | 19.11 | cytostatic activity on A2780 cells in SRB assay (in words) [2]: biologically inactive
Cc1c(C)c(C)[c-](C)c1C.F[P-](F)(F)(F)(F)F.O=C(OCC1OC(c2nnc(-c3ccccn3)o2)C(OC(=O)c2ccccc2)C(OC(=O)c2ccccc2)C1OC(=O)c1ccccc1)c1ccccc1.[Cl][Rh+2] (mixture of isomers) [Rh-3] | 1.60 | 39.86 | 
Cc1c(C)c(C)[c-](C)c1C.F[P-](F)(F)(F)(F)F.O=C(OCC1OC(c2nnc(-c3ccccn3)o2)C(OC(=O)c2ccccc2)C(OC(=O)c2ccccc2)C1OC(=O)c1ccccc1)c1ccccc1.[Cl][Rh+2] (mixture of isomers) [Rh-4] | 1.64 | 35.30 | 
Cc1c(C)c(C)[c-](C)c1C.F[P-](F)(F)(F)(F)F.O=C(OC1COC(c2nnc(-c3ccccn3)o2)C(OC(=O)c2ccccc2)C1OC(=O)c1ccccc1)c1ccccc1.[Cl][Rh+2] (mixture of isomers) [Rh-5] | 1.8 | 51.28 | cytostatic activity on ID8 cells, SRB assay (in words) [5]: mild cytostatic activity; ID8 Max. Inh. (%) [5]: 75.25%; Maximum Inhibition (%) ID8 [4]: 21.87%
Cc1c(C)c(C)[c-](C)c1C.F[P-](F)(F)(F)(F)F.O=C(OCC1OC(n2cc(-c3ccccn3)nn2)C(OC(=O)c2ccccc2)C(OC(=O)c2ccccc2)C1OC(=O)c1ccccc1)c1ccccc1.[Cl][Rh+2] (mixture of isomers) [Rh-6] | 1.85 | 59 | IC50 ([2]; SRB assay, 48 h): 25.3 µM; cytostatic activity on ID8 cells, SRB assay (in words) [5]: mild cytostatic activity; ID8 Max. Inh. (%) [5]: 43.70%; Maximum Inhibition (%) ID8 [4]: 28.28%
O=C(OC[C@H]1O[C@@H](c2noc(-c3ccccn3)n2)[C@H](OC(=O)c2ccccc2)[C@@H](OC(=O)c2ccccc2)[C@@H]1OC(=O)c1ccccc1)c1ccccc1 [Complex L-1, 3-(2′,3′,4′,6′-Tetra-O-benzoyl-β-D-glucopyranosyl)-5-(pyridin-2-yl)-1,2,4-oxadiazole] |  |  | cytostatic activity on A2780 cells in SRB assay (in words) [2]: practically inactive; toxicity on A2780 cells in short-term MTT assay (in words) [6]: practically inactive
dichloro(η^6-p-cymene)osmium(II) dimer [Os-dimer] |  |  | cytostatic activity on A2780 cells in SRB assay (in words) [2]: inactive; cytostatic activity on ID8 cells, SRB assay (in words) [5]: inactive
